Measured values reported in patent publication US4971967A, “Quinolinecarboxylic acid derivatives, antibacterial compositions and use” (Kanebo Ltd, priority 1989, dated 1990).
Converted amounts (≈) assume the structure as drawn.

Legend:
[1] = system: Staphylococcus aureus FDA 209P JC-1; experiment: Antibacterial activity (MIC), S. aureus FDA 209P JC-1; type: cell-based; details: FDA209P; Staphylococcus aureus FDA 209P JC-1, Gram +; read-out: Minimum inhibitory concentration (MIC)
Protocol: (§1) The compounds of the present invention (A, C, D, E, F, G, H, I, J, L, O and P) and the known compound (X) as reference were dissolved in 0.1 N aqueous sodium hydroxide to prepare a solution of 5000 μg/ml in concentration. The compounds of the present invention (B, K, M and N) and the known compound (Y) were dissolved in sterilized distilled water to prepare a solution of 5000 μg/ml in concentration. Each solution was diluted with sterilized distilled water to prepare a standard solution with a concentration of each test compound: 1000 μg/ml. The test was carried out by a method as appointed by Japan Society of Chemotherapy [cf. Chemotherapy, 29, 76-79 (1981)(TOKYO)].

[2] = system: Staphylococcus aureus IID 803; experiment: Antibacterial activity (MIC), S. aureus IID 803; type: cell-based; details: IID803; Staphylococcus aureus IID 803, Gram +; read-out: Minimum inhibitory concentration (MIC)
Protocol: as §1

[3] = system: Staphylococcus epidermidis IAM-1296; experiment: Antibacterial activity (MIC), S. epidermidis IAM-1296; type: cell-based; details: Staphylococcus epidermidis, IAM1296, Staphylococcus epidermidis IAM-1296, Gram +; read-out: Minimum inhibitory concentration (MIC)
Protocol: as §1

[4] = system: Streptococcus faecalis IID 682; experiment: Antibacterial activity (MIC), Streptococcus faecalis IID 682; type: cell-based; details: Enterococcus faecalis, IID682, Streptococcus faecalis IID 682, Gram +; read-out: Minimum inhibitory concentration (MIC)
Protocol: as §1

[5] = system: Bacillus subtilis ATCC 6633; experiment: Antibacterial activity (MIC), Bacillus subtilis ATCC 6633; type: cell-based; details: Bacillus subtilis, ATCC6633, Bacillus subtilis ATCC 6633, Gram +; read-out: Minimum inhibitory concentration (MIC)
Protocol: as §1

[6] = system: Micrococcus luteus ATCC 9341; experiment: Antibacterial activity (MIC), Micrococcus luteus ATCC 9341; type: cell-based; details: ATCC9341; Micrococcus luteus ATCC 9341, Gram +; read-out: Minimum inhibitory concentration (MIC)
Protocol: as §1

[7] = system: Escherichia coli NIHJ JC-2; experiment: Antibacterial activity (MIC), E. coli NIHJ JC-2; type: cell-based; details: NIHJJC2; Escherichia coli NIHJ JC-2, Gram -; read-out: Minimum inhibitory concentration (MIC)
Protocol: as §1

Escherichia coli KC-14 = experiment: Antibacterial activity (MIC), E. coli KC-14; type: cell-based; details: KC14; Escherichia coli KC-14, Gram -; read-out: Minimum inhibitory concentration (MIC)
Protocol: as §1

[8] = system: Klebsiella pneumoniae PCI-602; experiment: Antibacterial activity (MIC), Klebsiella pneumoniae PCI-602; type: cell-based; details: PCI602; Klebsiella pneumoniae PCI-602, Gram -; read-out: Minimum inhibitory concentration (MIC)
Protocol: as §1

[9] = system: Salmonella typhimurium IID 971; experiment: Antibacterial activity (MIC), Salmonella typhimurium IID 971; type: cell-based; details: Salmonella enterica; Salmonella typhimurium IID 971, Gram -; read-out: Minimum inhibitory concentration (MIC)
Protocol: as §1

Shigella sonnei EW-33 = experiment: Antibacterial activity (MIC), Shigella sonnei EW-33; type: cell-based; details: Shigella sonnei, EW33, Shigella sonnei EW-33, Gram -; read-out: Minimum inhibitory concentration (MIC)
Protocol: as §1

[10] = system: Serratia marcescens IAM 1184; experiment: Antibacterial activity (MIC), Serratia marcescens IAM 1184; type: cell-based; details: Serratia marcescens, IAM1184, Serratia marcescens IAM 1184, Gram -; read-out: Minimum inhibitory concentration (MIC)
Protocol: as §1

[11] = system: Pseudomonas aeruginosa IFO 3445; experiment: Antibacterial activity (MIC), P. aeruginosa IFO 3445; type: cell-based; details: Pseudomonas aeruginosa, IFO3445, Pseudomonas aeruginosa IFO 3445, Gram -; read-out: Minimum inhibitory concentration (MIC)
Protocol: as §1

[12] = system: Pseudomonas aeruginosa NCTC 10490; experiment: Antibacterial activity (MIC), P. aeruginosa NCTC 10490; type: cell-based; details: Pseudomonas aeruginosa, NCTC10490, Pseudomonas aeruginosa NCTC 10490, Gram -; read-out: Minimum inhibitory concentration (MIC)
Protocol: as §1

[13] = system: Pseudomonas aeruginosa E-2; experiment: Antibacterial activity (MIC), P. aeruginosa E-2; type: cell-based; details: E2; Pseudomonas aeruginosa E-2, Gram -; read-out: Minimum inhibitory concentration (MIC)
Protocol: as §1

[14] = system: Morganella morganii IFO 3848; experiment: Antibacterial activity (MIC), Morganella morganii IFO 3848; type: cell-based; details: Morganella morganii, IFO3848, Morganella morganii IFO 3848, Gram -; read-out: Minimum inhibitory concentration (MIC)
Protocol: as §1

Proteus vulgaris OX-19 = experiment: Antibacterial activity (MIC), Proteus vulgaris OX-19; type: cell-based; details: OX19; Proteus vulgaris OX-19, Gram -; read-out: Minimum inhibitory concentration (MIC)
Protocol: as §1

[15] = system: Proteus mirabilis IFO 3849; experiment: Antibacterial activity (MIC), Proteus mirabilis IFO 3849; type: cell-based; details: IFO3849; Proteus mirabilis IFO 3849, Gram -; read-out: Minimum inhibitory concentration (MIC)
Protocol: as §1

[16] = system: Enterobacter aerogenes ATCC 13048; experiment: Antibacterial activity (MIC), Enterobacter aerogenes ATCC 13048; type: cell-based; details: Klebsiella aerogenes, ATCC13048; Enterobacter aerogenes ATCC 13048, Gram -; read-out: Minimum inhibitory concentration (MIC)
Protocol: as §1

Enterobacter cloacae 963 = experiment: Antibacterial activity (MIC), Enterobacter cloacae 963; type: cell-based; details: Enterobacter cloacae, 963, Enterobacter cloacae 963, Gram -; read-out: Minimum inhibitory concentration (MIC)
Protocol: as §1

[17] = system: Citrobacter freundii NIHJ 10018-68; experiment: Antibacterial activity (MIC), Citrobacter freundii NIHJ 10018-68; type: cell-based; details: Citrobacter freundii, NIHJ10018, Citrobacter freundii NIHJ 10018-68, Gram -; read-out: Minimum inhibitory concentration (MIC)
Protocol: as §1

[18] = system: Acinetobacter calcoaceticus AC 54; experiment: Antibacterial activity (MIC), Acinetobacter calcoaceticus AC 54; type: cell-based; details: AC54; Acinetobacter calcoaceticus AC 54, Gram -; read-out: Minimum inhibitory concentration (MIC)
Protocol: as §1

[19] = system: Staphylococcus aureus IID 803; experiment: Effect on treatment of general infectious disease, S. aureus IID 803 (Experiment 4); type: in vivo, ddY male mice infected with Staphylococcus aureus; details: IID803, 168 h, oral, 1 h after i.p. infection, 2.1×10^7 CFU/mouse, survival after one week
Protocol: (§2) The test microorganisms were subjected to standing culture in Trypto-Soya Agar "Nissui" (made by Nissui Seiyaku K.K., Japan) at 37° C. for 16 to 18 hours. The culture was then diluted with PBS (Dulbecco's phosphate buffered saline) and mixed with an equivalent amount of 10% (w/v) Mucin (BACTO MUCIN BACTERIOLOGICAL, made by Difco Co.) to prepare a microorganism solution. The thus prepared microorganism solution (0.5 ml each) was intraperitoneally inoculated to ddY male mice (5 weeks age, weighing 25-28 g, 5 mice in each group), to infect the animals. One hour after the infection, the compound (A) or (J) of the present invention or the known compound (X) suspended in 1% (w/v) aqueous gum arabic or the known compound (Y) dissolved in sterilized distilled water was orally adiministered to mice.
(§3) The mice were daily observed for one week, and from the survival number of mice after one week, the 50% effective dose (ED50) was calculated by Weil method.
Staphylococcus aureus IID 803 (2.1×10^7 CFU/mouse)
(§4) The procedure of Experiment 3 was repeated except that ddY male mice weighing 24 to 28 g were employed.

[20] = system: Pseudomonas aeruginosa E-2; experiment: Effect on treatment of general infectious disease, P. aeruginosa E-2 (Experiment 4); type: in vivo, ddY male mice infected with Pseudomonas aeruginosa; details: E2, 168 h, oral, 1 h after i.p. infection, 3.4×10^4 CFU/mouse, survival after one week
Protocol: as §2, §3
Pseudomonas aeruginosa E-2 (3.4×10^4 CFU/mouse)
as §4

[21] = Acute toxicity (LD50) (Experiment 6); details: mouse, in vivo; oral, mice fasted 18 hours, observed for a week
Protocol: (§5) The compound (O) or (P) of the present invention was suspended in sterilized distilled water to prepare a suspension. The suspension was orally adminstered to ddY male mice (5 weeks age, weighing 20 to 25 g, 5 mice in each group), which had been fasted for 18 hours.

infection = experiment: Protective effects against infection (Experiments 3 and 4); type: in vivo, ddY male mice; details: result in words
Protocol: as §2, §3, §4

[22] = Low toxicity (Experiments 5 and 6); type: in vivo, ddY male mice; details: result in words
Protocol: The compound (A) or (J) of the present invention was suspended in 1% (w/v) aqueous gum arabic to prepare a suspension in concentration of 100 mg/ml. The suspension was orally administered to ddY male mice (5 weeks age, weighing 20 to 25 g, 5 mice in each group), which had been fasted for 18 hours, at a rate of 2000 mg/kg body weight of the compound (A) or (J).
as §5

## CC1CN(c2c(F)cc3c(=O)c(C(=O)O)c4scc5n4c3c2N(C)C5)CCN1C (stereo not drawn) [Compound (O), 9,1-(Methylimino)methano-7-fluoro-8-(3,4-dimethyl-1-piperazinyl)-5-oxo-5H-thiazolo[3,2-a]-quinoline-4-carboxylic acid]
[1]
  MIC: 0.025 µg/mL (≈ 0.06 µM)
[2]
  MIC: 0.025 µg/mL (≈ 0.06 µM)
[3]
  MIC: 0.05 µg/mL (≈ 0.12 µM)
[4]
  MIC: 0.1 µg/mL (≈ 0.24 µM)
[5]
  MIC: 0.0125 µg/mL (≈ 0.03 µM)
[6]
  MIC: 0.39 µg/mL (≈ 0.936 µM)
[7]
  MIC: 0.05 µg/mL (≈ 0.12 µM)
Escherichia coli KC-14
  MIC: 0.05 µg/mL (≈ 0.12 µM)
[8]
  MIC: 0.006 µg/mL (≈ 0.0144 µM)
[9]
  MIC: 0.2 µg/mL (≈ 0.48 µM)
Shigella sonnei EW-33
  MIC: 0.05 µg/mL (≈ 0.12 µM)
[10]
  MIC: 0.39 µg/mL (≈ 0.936 µM)
[11]
  MIC: 1.56 µg/mL (≈ 3.75 µM)
[12]
  MIC: 0.78 µg/mL (≈ 1.87 µM)
[13]
  MIC: 0.78 µg/mL (≈ 1.87 µM)
[14]
  MIC: 0.2 µg/mL (≈ 0.48 µM)
Proteus vulgaris OX-19
  MIC: 0.025 µg/mL (≈ 0.06 µM)
[15]
  MIC: 0.39 µg/mL (≈ 0.936 µM)
[16]
  MIC: 0.1 µg/mL (≈ 0.24 µM)
Enterobacter cloacae 963
  MIC: 0.1 µg/mL (≈ 0.24 µM)
[17]
  MIC: 0.39 µg/mL (≈ 0.936 µM)
[18]
  MIC: 0.025 µg/mL (≈ 0.06 µM)
[19]
  ED50: 2.8 mg/kg
[20]
  ED50: 9.4 mg/kg
[21]
  LD50 at 168 h: 1410 mg/kg
infection
  protective effects against infection: excellent protective effects against infection
[22]
  toxicity: low toxicity
